Measurements from patent EP0577932A2, “Development of a mechanism-based screen to identify androgen receptor agonists and antagonists” (AMERICAN CYANAMID COMPANY, priority 1992, dated 1994).

Target: T1, mouse androgen receptor (Mus musculus, UniProt P19091)
T1 sequence (P19091 1-899): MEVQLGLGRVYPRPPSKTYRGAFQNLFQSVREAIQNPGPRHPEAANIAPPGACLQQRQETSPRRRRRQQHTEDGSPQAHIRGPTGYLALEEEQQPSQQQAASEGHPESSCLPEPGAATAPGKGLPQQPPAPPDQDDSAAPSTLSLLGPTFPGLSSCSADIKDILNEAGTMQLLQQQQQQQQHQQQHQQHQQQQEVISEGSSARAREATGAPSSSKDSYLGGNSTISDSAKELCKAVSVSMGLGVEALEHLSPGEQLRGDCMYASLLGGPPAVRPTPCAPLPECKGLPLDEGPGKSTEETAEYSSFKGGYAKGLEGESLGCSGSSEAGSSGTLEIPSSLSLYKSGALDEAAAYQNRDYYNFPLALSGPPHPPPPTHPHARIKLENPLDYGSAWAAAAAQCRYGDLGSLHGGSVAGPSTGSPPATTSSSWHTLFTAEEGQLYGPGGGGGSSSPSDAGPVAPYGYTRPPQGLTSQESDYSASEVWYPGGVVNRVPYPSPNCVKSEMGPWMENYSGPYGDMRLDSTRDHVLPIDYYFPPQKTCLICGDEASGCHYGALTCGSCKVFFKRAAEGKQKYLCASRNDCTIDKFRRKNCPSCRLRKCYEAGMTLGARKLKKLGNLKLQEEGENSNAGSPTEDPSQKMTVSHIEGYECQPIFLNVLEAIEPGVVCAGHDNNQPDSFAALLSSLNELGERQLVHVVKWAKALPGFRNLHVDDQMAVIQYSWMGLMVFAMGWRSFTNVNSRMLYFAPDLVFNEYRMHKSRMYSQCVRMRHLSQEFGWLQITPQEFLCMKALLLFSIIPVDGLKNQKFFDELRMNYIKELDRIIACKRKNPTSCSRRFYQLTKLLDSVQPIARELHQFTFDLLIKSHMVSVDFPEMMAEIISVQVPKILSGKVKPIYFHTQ
Settings: compete for binding sites only at high concentrations
Protocol: Bound and free steroids are separated by dextran-coated charcoal (0.5% Norit A and 0.05% dextran). Specific binding is determined by subtracting non-specific from total binding.

## CC(C)(O)C(=O)Nc1ccc([N+](=O)[O-])c(C(F)(F)F)c1 [hyroxyl-flutamide]
  affinity for the androgen receptor (in words): lower affinity
